Laboratory results: patent US6133279A, “Therapeutic agents for renal diseases and organ preservatives” (Chugai Seiyaku Kabushiki Kaisha, priority 1996, dated 2000)
Read-outs that look alike come from different tables or passages of the source.

Key:
[1] = test system: puromycin-induced nephrosis model; test: Puromycin-induced nephrosis (1), preadministration (in vivo); set-up: species or system rat (male SD rats); details: day 8; for Creatinine clearance: control 576 ± 148; for Creatinine: serum, control 0.93 ± 0.21
Method: Effect of the compound of the present invention on an in vivo renal disease was studied using a puromycin-induced nephrosis model.
A puromycin-induced renal failure model was prepared from rats in groups of 5-8 each (6 week-old male SD rats) fed with high-fat diet. High-fat diet feeding was started by free access to high-fat diet (cholesterol level 1.25%) from 7 days before puromycin treatment. Puromycin (puromycin aminonucleoside, SIGMA Chemical Co.) treatment was performed by intraperitoneal administration at a dose of 100 mg/kg. The test compound was administered as a solution in soybean oil via oral route (4 ml/kg). Control group was orally administered soybean oil alone. The administration of compound was started from 3 days before the puromycin treatment once a day. After the puromycin treatment, the oral administration of the compound was continued.
Renal functions were determined by using urine and blood samples collected on day 8 after the puromycin treatment. Volume of urine and the creatinine levels in serum and urine were evaluated to calculate creatinine clearance as an indication of renal functions.

[2] = test system: puromycin-induced nephrosis model; test: Puromycin-induced nephrosis (2), postadministration (in vivo); set-up: species or system rat (male SD rats); details: 200 mg/kg oral once a day from the day following puromycin
Method: Effect of the compounds of the present invention on an in vivo renal disease was studied using a puromycin-induced nephrosis model. A puromycin-induced renal failure model was prepared from rats in groups of 5-8 each (6 week-old male SD rats) fed with high-fat diet. High-fat diet feeding was started by free access to high-fat diet (cholesterol level 1.25%) from 7 days before puromycin treatment. Puromycin (puromycin aminonucleoside, SIGMA Chemical Co.) treatment was performed by intraperitoneal administration at a dose of 100 mg/kg. Test compounds were administered as a solution in soybean oil via oral route (4 ml/kg). Control group was orally administered soybean oil alone. Probucol and a water-soluble α-tocopherol analogue, Trolox, were used as reference control compounds. The compounds were orally administered once a day from the following day of the puromycin treatment. Renal functions were determined by using urine and blood samples. The volume of urine, urea nitrogen level and creatinine levels of serum and urine were evaluated to calculate creatinine clearance as an indication of renal functions.

[3] = test system: ischemic acute renal failure model; test: Ischemic acute renal failure model, renal ischemia 60 minutes (in vivo); set-up: species or system rat (male SD rats); details: 200 mg/kg oral once a day
Method: (§1) Effect of a compound of the present invention on an in vivo renal disease was studied using an ischemic acute renal failure model.
(§2) An ischemic acute renal failure model was prepared from in groups of 8 each rats (male SD rats, weight: 224-285 g) fed with high-fat diet. High-fat diet feeding was started by free access to high-fat diet (cholesterol level 1.25%) from 7 or 8 days prior to unilateral nephrectomy and left renal artery clamping. The test compound was administered as a solution in soybean oil via oral route (4 ml/kg). Control group was orally administered soybean oil alone. The administration of compound was started from 4 or 5 days before the ischemic treatment at a dose of 200 mg/kg once a day. After the ischemia treatment, the oral administration of the compound was continued at a frequency of once a day. The ischemic treatment was performed by removing the right kidney and clipping a renal artery of the left kidney for 30 or 60 minutes.
(§3) Renal functions after ischemic treatment were determined by using urine and blood samples daily collected. Urine volume and the creatinine level of serum and urine were evaluated to calculate creatinine clearance as an indication of renal functions. Influences of high-fat diet feeding were monitored by measuring serum cholesterol level.

[4] = test system: ischemic acute renal failure model; test: Ischemic acute renal failure model, renal ischemia 30 minutes (in vivo); set-up: species or system rat (male SD rats); details: 200 mg/kg oral once a day
Method: as §1, §2, §3

[5] = test system: murine mesangial derived MES13 cells; test: Protective effect against oxidized LDL-induced injury of murine mesangial cells (in vitro); type: cell-based; details: Mus musculus, MES13, 10 h, mean ± standard deviation, read-out: Cytoprotection rate (%)
Method: For the purpose of evaluating in vitro cytoprotective effect of the compounds of the present invention on mesangial cells, a cytoprotective study was performed using murine mesangial derived MES13 cells (ATCC-CRL-1927) injured by oxidized LDL.
Oxidized LDL was prepared in the same manner as in Test example 1. Cell culture was carried out by plating 2.5×10^4 cells/250 μl/well on a 48-well plate using FBS-free medium (mixture of DME medium and F12 medium in a ratio of 3:1). Test compounds were dissolved or suspended in ethanol and added to the wells in an amount of 1.25 μl/well to a concentration of 1 or 10 μM in each well. After 16 hours or immediately after the addition of the compounds, oxidized LDL was added to cells in an amount of 25 μl/well to a concentration of 91 μg/ml and the cells were cultured for 10 hours after addition of the oxidized LDL. Then, 150 μl/well of the culture medium were collected and measured for the lactate dehydrogenase level (LDL: SIGMA DIAGNOSTICS) having leaked in the medium.
The magnitude of cytoprotective effect was expressed as the cytoprotection rate which was determined by calculating the data assuming that the magnitude in wells containing oxidized LDL is 0% and that the magnitude in containing saline is 100%.

[6] = 20 mg/kg oral once a day from 3 days before puromycin
[7] = 200 mg/kg oral once a day from 3 days before puromycin, P < 0.05
[8] = compound added 16 hours before adding oxidized LDL
[9] = compound added immediately before adding oxidized LDL

CCCCCC1(CCCCC)Cc2c(cc(C(C)(C)C)c(O)c2C(C)(C)C)O1 [Example 36, 4,6-Di-t-butyl-2,2-di-n-pentyl-5-hydroxy-2,3-dihydrobenzofuran]
Creatinine clearance [1, 6]: 724 ± 176 mL/day
Creatinine clearance [1, 7]: 1055 ± 482 mL/day
Creatinine [1, 6]: 0.71 ± 0.14 mg/dL
Creatinine [1, 7]: 0.59 ± 0.23 mg/dL
Creatinine ([2]; control 0.82 ± 0.07): 0.75 ± 0.11 mg/dL
Urine nitrogen ([2]; control 30.74 ± 10.95): 24.57 ± 10.68 mg/dL
Creatinine clearance ([2]; control 824 ± 108): 837 ± 205 mL/day
Creatinine ([3]; 1 day after ischemia (60 minutes), control 3.89 ± 0.77, P < 0.01): 2.81 ± 0.42 mg/dL
Creatinine clearance ([3]; 1 day after ischemia (60 minutes), control 276 ± 118, P < 0.05): 478 ± 171 mL/day
Creatinine ([3]; 2 days after ischemia (60 minutes), control 3.33 ± 1.90): 1.94 ± 0.30 mg/dL
Creatinine clearance ([3]; 2 days after ischemia (60 minutes), control 363 ± 140, P < 0.01): 594 ± 123 mL/day
Creatinine ([3]; 3 days after ischemia (60 minutes), control 3.19 ± 2.19): 1.86 ± 0.27 mg/dL
Creatinine ([4]; 1 day after ischemia (30 minutes), control 1.73 ± 0.73, P < 0.05): 1.06 ± 0.24 mg/dL
Creatinine clearance ([4]; 1 day after ischemia (30 minutes), control 632 ± 167, P < 0.05): 934 ± 253 mL/day
Creatinine ([4]; 2 days after ischemia (30 minutes), control 1.84 ± 1.40): 0.96 ± 0.23 mg/dL
Creatinine clearance ([4]; 2 days after ischemia (30 minutes), control 678 ± 277, P < 0.05): 1095 ± 325 mL/day
Creatinine ([4]; 3 days after ischemia (30 minutes), control 2.19 ± 2.34): 1.05 ± 0.26 mg/dL
inhibition at 1 µM [5, 8]: 9.7 ± 1.8%
inhibition at 1 µM [5, 9]: 2.7 ± 0.7%
inhibition at 10 µM [5, 8]: 43.5 ± 0.5%
inhibition at 10 µM [5, 9]: 40 ± 3.5%
